Results published in paper PMC7096398, “Oxytocin Receptors Regulate Social Preference in Zebrafish” (Scientific Reports, 2020).
Entries after “also recorded” stand apart in the source; their conditions may differ.

Legend:
Oxtr = target: T1, Oxtr (Danio rerio, UniProt E4W699); test: Inositol phosphate accumulation assay, antagonism of 1 μM zVP at Oxtr; assay type: cell-based, zebrafish; conditions: stimulated with zVP
T1 construct: host or cells: HEK293
T1 sequence (E4W699 1-388): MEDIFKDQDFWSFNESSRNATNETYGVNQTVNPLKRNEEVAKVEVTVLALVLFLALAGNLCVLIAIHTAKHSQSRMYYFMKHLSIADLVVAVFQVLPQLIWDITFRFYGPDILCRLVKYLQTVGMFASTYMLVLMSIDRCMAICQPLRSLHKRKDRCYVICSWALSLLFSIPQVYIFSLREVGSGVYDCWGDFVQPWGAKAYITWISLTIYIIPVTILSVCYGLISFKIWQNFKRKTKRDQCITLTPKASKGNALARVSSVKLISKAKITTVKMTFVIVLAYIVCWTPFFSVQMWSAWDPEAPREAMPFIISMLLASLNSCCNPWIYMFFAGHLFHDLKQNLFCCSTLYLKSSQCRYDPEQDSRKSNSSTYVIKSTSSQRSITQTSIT
Experimental: (§1) The receptor constructs were ordered from GeneScript and subcloned into a pcDNA3.1/CT-GFP-TOPO vector. The coding sequences of the GenBank entries NM_001199370.1 (oxtr), NM_001199369.1 (oxtrl), NM_001301114.1 (avpr1aa), and NM_001297676.1 (avpr1ab) were used for synthesis. The stop codons were removed, and an additional […] was added to facilitate hybrid protein expression with GFP in frame from the vector. The GCCACC Kozak sequence was inserted before the start codons. After transformation of the plasmid constructs into TOP10 competent cells (Thermo Fisher Scientific), the Maxiprep (Thermo Fisher Scientific) method was used to amplify the plasmids for transfection.
(§2) The Inositol phosphate accumulation assay was performed according to previous descriptions to measure the potency of different ligands for zebrafish different oxytocin related receptors. Each receptor construct was transfected into HEK293 cells using Lipofectamine 2000 (Thermo Fisher Scientific). Myo2-^3H-inositol (PerkinElmer) at 3 μCi/mL was added the day after transfection. […] Samples were mixed with OptiPhase HiSafe (PerkinElmer Waltham, MA, USA) and ^3H radioactivity was measured with a Tri-Carb 2910TR liquid scintillation counter (PerkinElmer Waltham, MA, USA). […]

monkeys = conditions: cited from earlier work
Oxtrl = target: T2, Oxtrl (Danio rerio, UniProt E4W698); test: Inositol phosphate accumulation assay, antagonism of 1 μM zVP at Oxtrl; assay type: cell-based, zebrafish; conditions: stimulated with zVP
T2 construct: host or cells: HEK293
T2 sequence (E4W698 1-382): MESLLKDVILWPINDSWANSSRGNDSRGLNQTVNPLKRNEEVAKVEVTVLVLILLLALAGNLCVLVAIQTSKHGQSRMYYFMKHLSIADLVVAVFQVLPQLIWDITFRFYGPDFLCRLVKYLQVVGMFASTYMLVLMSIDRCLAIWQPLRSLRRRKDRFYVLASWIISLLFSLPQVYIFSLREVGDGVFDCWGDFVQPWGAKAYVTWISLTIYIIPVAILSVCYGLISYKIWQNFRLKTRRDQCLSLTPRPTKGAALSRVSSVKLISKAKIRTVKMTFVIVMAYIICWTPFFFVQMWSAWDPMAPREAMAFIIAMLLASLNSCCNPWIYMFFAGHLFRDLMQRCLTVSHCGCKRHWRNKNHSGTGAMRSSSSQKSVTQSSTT
Experimental: as §1, §2

Avpr1aa = target: T3, Avpr1aa (Danio rerio, UniProt A0A8M1P1H3); test: Inositol phosphate accumulation assay, antagonism of 1 μM zVP at Avpr1aa; assay type: cell-based, zebrafish; conditions: stimulated with agonist; antagonist up to 1 μM
T3 sequence (A0A8M1P1H3 1-379): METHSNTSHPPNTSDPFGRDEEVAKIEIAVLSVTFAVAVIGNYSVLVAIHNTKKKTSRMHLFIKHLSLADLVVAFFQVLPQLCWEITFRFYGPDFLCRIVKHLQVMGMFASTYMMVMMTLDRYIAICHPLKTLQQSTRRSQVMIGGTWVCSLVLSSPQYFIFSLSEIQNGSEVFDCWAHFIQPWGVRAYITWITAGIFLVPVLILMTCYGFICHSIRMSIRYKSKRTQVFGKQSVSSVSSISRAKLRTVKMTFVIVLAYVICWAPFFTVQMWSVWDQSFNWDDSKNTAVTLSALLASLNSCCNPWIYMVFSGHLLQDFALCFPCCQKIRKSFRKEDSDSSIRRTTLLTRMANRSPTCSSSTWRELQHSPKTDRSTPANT
Experimental: as §1, §2

adult zebrafish = test: Novel tank diving in adult zebrafish; assay type: in vivo, zebrafish (Danio rerio)
Experimental: Adult and larval behavioural testing was performed between 9 AM and 4 PM. All fish were fed prior to and after experiments, and larvae were also given an additional feed at midday. Adult fish were of a 1:1 sex ratio, and focal fish and stimulus fish were size-matched. Adult fish and shoals were filmed using a web camera and Debut Video Capture Software (NCH Software, Greenwood Village, USA), and videos were analysed using EthoVision version 11 (Noldus, Wageningen, the Netherlands).
A novel tank diving test was executed individually in order to examine the effect of the antagonist on anxiety in zebrafish. Anxiety-like behaviour in zebrafish is evident in a tendency to move towards the bottom of novel environments. The novel tank diving test used here has been described elsewhere. In brief, the same procedure as for the shoaling test described above was used, except that fish were housed in groups of 4–6 individuals 24 hours prior to the experiment in order to keep netting and potential stress to a minimum, and each fish was placed the test tank individually. A total of 20 vehicle-treated fish and 20 antagonist-treated fish were tested.
All data for the social preference and novel tank diving experiments in adults were extracted as processed means per minute from EthoVision. For the shoaling experiments, raw data was exported from EthoVision, and then post-processed by an in-house script written in Python 3.4, in order to compute IFD, NND, and FND as described elsewhere. For timelines, repeated measures analysis of variance (RM-ANOVA) was used. For pairwise comparisons of total means between groups, Student’s T-tests were used.

SMILES: Cc1ccccc1N1CCN(S(=O)(=O)C[C@]23CC[C@H](C[C@@H]2NC(=O)[C@@H](N)CCS(C)(=O)=O)C3(C)C)CC1 [L-368,899]
- Antagonism at Oxtr, in words (Oxtr): able to block zVP activation; also recorded: specifically inhibited; also recorded: potently antagonised
- Behavioural effects one hour after treatment (monkeys): robust behavioural effects
- Antagonism at Oxtrl, in words (Oxtrl): able to block zVP activation; also recorded: specifically inhibited; also recorded: potently antagonised
- Antagonism at Avpr1aa, in words (Avpr1aa): did not block the response; also recorded: without reducing the effect of the peptide agonist
- Anxiety behaviour: Distance to bottom (adult zebrafish; adult novel tank diving, i.p., 1 h before test, mean ± SEM, n = 20, vehicle 2.7 ± 0.4): 3.1 ± 0.4 cm
- Locomotion: Velocity (adult zebrafish; adult novel tank diving, i.p., 1 h before test, mean ± SEM, n = 20, vehicle 3.1 ± 0.2, p = 0.47): 2.9 ± 0.2 cm/s
- Anxiety behaviour: Duration in top zone (adult zebrafish; adult novel tank diving, i.p., 1 h before test, mean ± SEM, n = 20, vehicle 7.0 ± 2.4): 8.8 ± 2.4 s/min
- Locomotion: Distance (adult zebrafish; adult novel tank diving, i.p., 1 h before test, mean ± SEM, n = 20, vehicle 186 ± 11, p = 0.49): 174 ± 14 cm/min
- Anxiety behaviour: Latency to top zone (adult zebrafish; adult novel tank diving, i.p., 1 h before test, mean ± SEM, n = 20, vehicle 327 ± 58): 387 ± 81 s
- Anxiety, in words (adult zebrafish; adults, antagonist vs vehicle): did not affect anxiety; also recorded: no differences in any of the anxiety parameters
- Activity parameters vs vehicle, novel tank diving test (adult zebrafish; average distance p = 0.49, average velocity p = 0.47): no significant differences
